Laboratory results: patent US20250268903A1, “RXFP1 AGONISTS” (BRISTOL-MYERS SQUIBB COMPANY, priority 2021, published 2025)

Target: T1, human RXFP1 (Homo sapiens, UniProt Q9HBX9)
T1 construct: expressed in transfected cells
T1 sequence (Q9HBX9 1-757): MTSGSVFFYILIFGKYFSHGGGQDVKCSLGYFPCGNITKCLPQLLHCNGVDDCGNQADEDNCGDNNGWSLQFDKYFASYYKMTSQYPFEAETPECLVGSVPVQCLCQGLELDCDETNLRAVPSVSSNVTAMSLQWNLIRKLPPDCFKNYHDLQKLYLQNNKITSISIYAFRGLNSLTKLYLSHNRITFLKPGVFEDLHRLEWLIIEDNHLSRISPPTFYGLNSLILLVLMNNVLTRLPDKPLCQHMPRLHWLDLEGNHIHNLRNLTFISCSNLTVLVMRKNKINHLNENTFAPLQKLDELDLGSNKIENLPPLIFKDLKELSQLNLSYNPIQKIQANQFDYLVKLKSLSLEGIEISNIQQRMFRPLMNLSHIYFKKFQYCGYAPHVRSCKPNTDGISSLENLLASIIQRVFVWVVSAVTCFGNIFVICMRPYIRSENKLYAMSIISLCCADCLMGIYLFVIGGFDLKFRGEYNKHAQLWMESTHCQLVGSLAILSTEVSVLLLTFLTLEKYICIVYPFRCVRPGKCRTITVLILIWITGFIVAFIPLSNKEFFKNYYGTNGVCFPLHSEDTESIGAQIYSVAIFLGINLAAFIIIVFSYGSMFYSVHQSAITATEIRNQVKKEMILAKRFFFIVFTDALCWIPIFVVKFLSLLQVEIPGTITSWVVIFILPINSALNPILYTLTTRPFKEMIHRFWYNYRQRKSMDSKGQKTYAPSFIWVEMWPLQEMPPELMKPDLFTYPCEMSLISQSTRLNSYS
Assay: hRXFP1 HEK293 cAMP assay (HTRF)
Format: cell-based
Conditions: HEK293 cells stably expressing human RXFP1, 30 min at room temperature
In short: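 hRXFP1-HEK293 stable line; HBSS + Ca/Mg, 20 mM HEPES, 0.05% BSA, 0.5 mM IBMX; cpd 0.010 nM–50 μM, 2% DMSO; 30 min RT; lysis, HTRF cAMP detection; 4-PL fit.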

Row | EC50 [nM] | Compound
1 | 4020 | COC(=O)[C@@H]1CCN(C(=O)Cc2ccc(OC)c(C(=O)NC3C(C(=O)Nc4ccc(F)c(C(F)(F)F)c4)[C@H]4CC[C@@H]3/C4=C\C3CC3)c2)C1 (stereo partly drawn) [Example 356]
2 | 1290 | COc1ccc(CC(=O)N2CCC(C)(O)C2)cc1C(=O)NC1C(C(=O)Nc2ccc(F)c(C(F)(F)F)c2)[C@H]2CC[C@@H]1/C2=C\C1CC1 (stereo partly drawn) [Example 357, (1R,4R,7Z)-7-(cyclopropyl-methylidene)-N-[4-fluoro-3-(trifluoromethyl)phenyl]-3-{5-[2-(3-hydroxy-3-methylpyrrolidin-1-yl)-2-oxoethyl]-2-methoxybenzamido} bicyclo[2.2.1]heptane-2-carboxamide]
3 | 1500 | COc1ccc(C(F)(F)F)cc1C(=O)N[C@@H]1C2CCC(C2=C(C)C)[C@@H]1C(=O)Nc1ccc(F)c(C(F)(F)F)c1 (stereo partly drawn) [Example 359]
4 | 2000 | COc1ccc(C)cc1C(=O)N[C@@H]1C2CCC(C2=C(C)C)[C@@H]1C(=O)Nc1ccc(F)c(C(F)(F)F)c1 (stereo partly drawn) [Example 360, (2S,3R)-N-[4-fluoro-3-(trifluoromethyl)phenyl]-3-(2-methoxy-5-methylbenzamido)-7-(propan-2-ylidene)bicyclo[2.2.1] heptane-2-carboxamide]
5 | 3 | COc1ccc([C@@H]2CCC(CC(C)(C)O)C2)cc1C(=O)N[C@H]1[C@@H](C(=O)Nc2ccc(F)c(C(F)(F)F)c2)[C@H]2CC[C@@H]1/C2=C\C1CCCC1 (stereo partly drawn) [Example 362, (1R,2S,3R,4R,Z)-7-(cyclopentyl-methylene)-N-(4-fluoro-3-(trifluoromethyl)phenyl)-3-(5-((1R)-3-(2-hydroxy-2-methylpropyl)cyclopentyl)-2-methoxybenzamido) bicyclo[2.2.1] heptane-2-carboxamide]
6 | 3.9 | COc1ccc(C2CC(C(C)(C)O)C2)cc1C(=O)N[C@H]1[C@@H](C(=O)Nc2ccc(F)c(C(F)(F)F)c2)[C@H]2CC[C@@H]1/C2=C\C1CCCC1 (stereo partly drawn) [Example 363, (1R,2S,3R,4R,Z)-7-(cyclopentyl-methylene)-N-(4-fluoro-3-(trifluoromethyl)phenyl)-3-(5-(3-(2-hydroxypropan-2-yl)cyclobutyl)-2-methoxybenzamido) bicyclo[2.2.1] heptane-2-carboxamide]
7 | 1.1 | COc1ccc(COc2c(F)cccc2C(OC(=O)Nc2ccccc2)C(F)(F)F)cc1C(=O)N[C@H]1[C@@H](C(=O)Nc2ccc(F)c(C(F)(F)F)c2)[C@H]2CC[C@@H]1/C2=C\C1CC1 (stereo partly drawn) [Example 364, 1-(2-((3-(((1R,2R,3S,4R,Z)-7-(cyclopropyl-methylene)-3-((4-fluoro-3-(trifluoromethyl)phenyl)carbamoyl)bicyclo[2.2.1]heptan-2-yl)carbamoyl)-4-methoxybenzyl)oxy)-3-fluorophenyl)-2,2,2-trifluoroethyl phenylcarbamate]
8 | 2.8 | COc1c(F)cc(C(=O)N2CC(S(C)(=O)=O)C2)cc1C(=O)N[C@H]1[C@@H](C(=O)Nc2ccc(F)c(C(F)(F)F)c2)[C@H]2CC[C@@H]1/C2=C\C1CCCC1 [Example 365, (1R,2S,3R,4R,7Z)-7-(cyclopentyl-methylidene)-N-[4-fluoro-3-(trifluoromethyl)phenyl]-3-[3-fluoro-5-(3-methanesulfonyl-azetidine-1-carbonyl)-2-methoxybenzamido] bicyclo[2.2.1]heptane-2-carboxamide]
9 | 3.1 | COc1c(F)cc(C(=O)NCC2(S(C)(=O)=O)CC2)cc1C(=O)N[C@H]1[C@@H](C(=O)Nc2ccc(F)c(C(F)(F)F)c2)[C@H]2CC[C@@H]1/C2=C\C1CC1 [Example 366, N3-[(1R,2R,3S,4R,7Z)-7-(cyclopropyl-methylidene)-3-{[4-fluoro 3-(trifluoromethyl)phenyl]carbamoyl}bicyclo[2.2.1]heptan-2-yl]-5-fluoro-N1-[(1-methanesulfonyl-cyclopropyl)methyl]-4-methoxybenzene-1,3-dicarboxamide]
10 | 2.3 | COc1c(F)cc(C(=O)NCC2(S(C)(=O)=O)CC2)cc1C(=O)N[C@H]1[C@@H](C(=O)Nc2ccc(F)c(C(F)(F)F)c2)[C@H]2CC[C@@H]1/C2=C\C1CCCC1 [Example 367, N3-[(1R,2R,3S,4R,7Z)-7-(cyclopentyl-methylidene)-3-{[4-fluoro-3-(trifluoromethyl)phenyl]carbamoyl}bicyclo[2.2.1]heptan-2-yl]-5-fluoro-N1-[(1-methanesulfonyl-cyclopropyl)methyl]-4-methoxybenzene-1,3-dicarboxamide]
11 | 9.1 | COc1c(F)cc(C(=O)NCC2(S(C)(=O)=O)CC2)cc1C(=O)N[C@H]1[C@@H](C(=O)Nc2ccc(F)c(C(F)(F)F)c2)[C@H]2CC[C@@H]1/C2=C\C(F)(F)F [Example 368, 5-fluoro-N3-[(1R,2R,3S,4R,7Z)-3-{[4-fluoro-3-(trifluoromethyl)phenyl]carbamoyl}-7-(2,2,2-trifluoroethylidene)bicyclo[2.2.1]heptan-2-yl]-N1-[(1-methanesulfonyl-cyclopropyl)methyl]-4-methoxybenzene-1,3-dicarboxamide]
12 | 3 | COc1c(F)cc(C(=O)NCC2(S(C)(=O)=O)CC2)cc1C(=O)N[C@H]1[C@@H](C(=O)N[C@H](C)C2(C)CC2)[C@H]2CC[C@@H]1/C2=C\C1CC1 [Example 369, N3-[(1R,2R,3S,4R,7Z)-7-(cyclopropyl-methylidene)-3-{[(1R)-1-(1-methylcyclopropyl)ethyl]carbamoyl}bicyclo[2.2.1]heptan-2-yl]-5-fluoro-N1-[(1-methanesulfonyl-cyclopropyl)methyl]-4-methoxybenzene-1,3-dicarboxamide]
13 | 9.7 | COc1c(F)cc(C2CC3CC(CO)CC3C2)cc1C(=O)N[C@H]1[C@@H](C(=O)Nc2ccc(F)c(C(F)(F)F)c2)[C@H]2CC[C@@H]1/C2=C\C1CCCC1 (stereo partly drawn) [Example 370, (1R,2S,3R,4R,7Z)-7-(cyclopentyl-methylidene)-N-[4-fluoro-3-(trifluoromethyl)phenyl]-3-{3-fluoro-5-[5-(hydroxymethyl)-octahydropentalen-2-yl]-2-methoxybenzamido} bicyclo[2.2.1]heptane-2-carboxamide]
14 | 2.8 | COc1c(F)cc(C(=O)N2CC3(CC(O)C3)C2)cc1C(=O)N[C@H]1[C@@H](C(=O)Nc2ccc(F)c(C(F)(F)F)c2)[C@H]2CC[C@@H]1/C2=C\C1CCCC1 [Example 371, (1R,2S,3R,4R,7Z)-7-(cyclopentyl-methylidene)-N-[4-fluoro-3-(trifluoromethyl)phenyl]-3-(3-fluoro-5-{6-hydroxy-2-azaspiro[3.3]heptane-2-carbonyl}-2-methoxybenzamido) bicyclo[2.2.1]heptane-2-carboxamide]
15 | 5.9 | COc1c(F)cc(C(=O)N2CC3(C2)CC(O)(C(F)(F)F)C3)cc1C(=O)N[C@H]1[C@@H](C(=O)N[C@H](C)C2(C)CC2)[C@H]2CC[C@@H]1/C2=C\C1CC1 [Example 372, (1R,2S,3R,4R,7Z)-7-(cyclopropyl-methylidene)-3-{3-fluoro-5-[6-hydroxy-6-(trifluoromethyl)-2-azaspiro[3.3]heptane-2-carbonyl]-2-methoxybenzamido}-N-[(1R)-1-(1-methylcyclopropyl)ethyl]bicyclo[2.2.1] heptane-2-carboxamide]
